US20160326547A1, “TRANSGENIC PRODUCTION OF HEPARIN” (LFB USA, INC., priority 2013, published 2016)
“Also recorded” adds a separate entry of the source.

Key:
lactating goats [1] = assay: Experiment 1: systemic (intravenous) administration of heparin, toxicity study in lactating goats; assay type: in vivo, goat
Procedure: (§1) A study was conducted to determine if the production of heparin in the mammary gland would also have a significant effect on the producing animal. The protein produced by the transgene can potentially affect the mammary gland directly. In addition, it is known that there is potential leakage of the protein into the systemic system. To assess the potential effects of systemic and infused heparin on the goat, the study outlined below was performed. Blood was drawn and milk collected from each milking animal at least once daily during two experiments to determine the effects of heparin administration relative to systemic and udder infusion routes. The levels of heparin, and clotting times as indicated by aPTT were calculated from blood serum. Milk volumes were measured and heparin levels in the milk were determined. In addition, the quality of the milk (color, consistency, evidence of clumping, blood, or mastitis) was noted. The general health of each animal was assessed daily, including a rectal temperature. Since heparin is an anticoagulant, animals were also inspected daily for any gross signs of bleeding, such as abnormal bruising or petechiae. Six normal, non-transgenic, lactating goats were fed approximately four pounds of specially formulated vegetarian goat feed, per day, and given a combination of timothy and alfalfa hay as well as free access to water and plain and mineralized salt blocks. As these were lactating animals, they were milked daily starting on the day they arrived. The milk volume was measured each day and a rectal temperature recorded Milk volumes and rectal temperatures prior to the first or second experiment can be seen below in Table 7. Animals were manually restrained so that the jugular vein could be identified. A 21-gauge ¾ inch butterfly needle (BD Vacutainer Blood Collection Set Ref 367251, Franklin Lakes, N.J. USA) was inserted into the vessel, and the blood was collected into 2-1.8 ml sodium citrate vacutainer tubes (BD Vacutainer, Buffered Na Citrate, Franklin Lakes, N.J. USA). After collection (or after blood collection and heparin administration—see below) the needle was removed, and pressure was applied at the collection site to stop any bleeding. The animal received positive reinforcement (grain reward) after each procedure. The animals were restrained as above. The butterfly needle used for blood collection described above is designed so that blood can be collected via a vacutainer blood collection tube, or a syringe can be attached. Thus, after blood collection, the part of the needle that connects with the blood collection tube was removed, and a syringe with heparin was attached and the heparin was slowly injected. An additional 0.4 ml of sterile normal saline was flushed through the needle to ensure that all heparin was delivered. In this way a single needle placement was used for both blood collection and heparin injection, and any additional stress relative to a second venipuncture site was avoided. All goats were milked using a portable milking machine, once every day starting the day the goats arrived. Animals were placed on a milking stand for this procedure. The general protocol for milking was as follows. Personnel doing the milking washed their hands thoroughly and donned latex examination gloves. The udder was cleaned using paper towels and water. The udder was then dried using clean paper towels. […]

lactating goats [2] = assay: Experiment 2: udder infusion of heparin, toxicity study in lactating goats; assay type: in vivo, goat
Procedure: as §1, with “procedure.” for “procedure. The animals were restrained as above. The butterfly needle used for blood collection described above is designed so that blood can be collected via a vacutainer blood collection tube, or a syringe can be attached. Thus, after blood collection, the part of the needle that connects with the blood collection tube was removed, and a syringe with heparin was attached and the heparin was slowly injected. An additional 0.4 ml of sterile normal saline was flushed through the needle to ensure that all heparin was delivered. In this way a single needle placement was used for both blood collection and heparin injection, and any additional stress relative to a second venipuncture site was avoided.”, “towels. The teat was cleaned again using alcohol wipes, and pre-dip (FS-106 Sanitizing Teat Dip, IBA Inc., Millbury, Mass. USA) was applied and allowed to dry. A small sample was expressed from the teat by hand to assess milk quality, perform a streak test, and to be frozen for further analysis. The milking machine was then attached to the udder. After milking, the teats were cleaned with alcohol, and post milking disinfectant was applied (Ultra Shield Sanitizing Barrier Teat Dip, IBA Inc., Millbury, Mass. USA). The volume of milk was determined, and the small sample was frozen and stored in a −80° C. chest freezer for subsequent testing. The six milking goats were divided into 3 groups of 2 goats. All goats were milked daily with a milking machine, and had blood samples taken. After milking and blood collection, goats had their udders infused with heparin using a teat infusion cannula (Udder Infusion Cannula, IBA Inc., Millbury, Mass. USA). Each group received either a low (25,000 Units), medium (100,000 Units), or high (500,000 Units) dose of infused heparin, equivalent to the 3 different expression levels being explored on a per liter of milk basis. Volumes infused were less than 50 ml per udder. This protocol was performed for a total of seven days.” for “towels.”

[3] = Medium dose udder infusion (100,000 units per liter), Animal 4, days 1-8, day 1
[4] = Medium dose udder infusion (100,000 units per liter), Animal 4, days 1-8, day 2
[5] = Medium dose udder infusion (100,000 units per liter), Animal 4, days 1-8, day 3
[6] = Medium dose udder infusion (100,000 units per liter), Animal 4, days 1-8, day 4
[7] = Medium dose udder infusion (100,000 units per liter), Animal 4, days 1-8, day 5
[8] = Medium dose udder infusion (100,000 units per liter), Animal 4, days 1-8, day 6
[9] = Medium dose udder infusion (100,000 units per liter), Animal 4, days 1-8, day 7
[10] = goat infused with the highest levels
[11] = udder infusion, low or medium dose for a week

## heparin
Lactating goats [1]; High dose (31,000 Units IV TID), noon and 4 PM samples, above instrument maximum
  aPTT: > 124 s
Lactating goats [1]; High dose IV, second High AM sample prior to AM dose
  aPTT overnight between the two high doses: low 40's; also recorded: dropped to more normal levels overnight
Lactating goats [1]; High dose IV, second day, noon and 4 PM examinations
  Lung sounds: increase in lung sounds in one animal
Lactating goats [1]; IV heparin over 6 days, any dose
  Petechiae or abnormal bleeding: no obvious gross signs of bleeding; also recorded: no evidence of petechiae or abnormal bleeding
Lactating goats [1]; any IV dose
  Milk volumes and body temperatures: little, if any, effect; also recorded: not affected
Lactating goats [2]; Low dose udder infusion (25,000 units/liter), Animal 1, days 1-8 (daily infusion days 1-7), day 1
  Milk volume: 2.25 L
Lactating goats [2]; Low dose udder infusion (25,000 units/liter), Animal 1, days 1-8 (daily infusion days 1-7), day 3
  Milk volume: 2.2 L
Lactating goats [2]; Low dose udder infusion (25,000 units/liter), Animal 1, days 1-8 (daily infusion days 1-7), day 4
  Milk volume: 2.0 L
Lactating goats [2]; Low dose udder infusion (25,000 units/liter), Animal 1, days 1-8 (daily infusion days 1-7), day 5
  Milk volume: 1.9 L
Lactating goats [2]; Low dose udder infusion (25,000 units/liter), Animal 1, days 1-8 (daily infusion days 1-7), day 6
  Milk volume: 1.8 L
Lactating goats [2]; Low dose udder infusion (25,000 units/liter), Animal 1, days 1-8 (daily infusion days 1-7), day 7
  Milk volume: 1.7 L
Lactating goats [2]; Low dose udder infusion (25,000 units/liter), Animal 1, days 1-8, day 1
  aPTT time: 23.2 s
Lactating goats [2]; Low dose udder infusion (25,000 units/liter), Animal 1, days 1-8, day 2
  aPTT time: 36 s
Lactating goats [2]; Low dose udder infusion (25,000 units/liter), Animal 1, days 1-8, day 3
  aPTT time: 37 s
Lactating goats [2]; Low dose udder infusion (25,000 units/liter), Animal 1, days 1-8, day 4
  aPTT time: 34.9 s
Lactating goats [2]; Low dose udder infusion (25,000 units/liter), Animal 1, days 1-8, day 5
  aPTT time: 34.5 s
Lactating goats [2]; Low dose udder infusion (25,000 units/liter), Animal 1, days 1-8, day 6
  aPTT time: 34.6 s
Lactating goats [2]; Low dose udder infusion (25,000 units/liter), Animal 1, days 1-8, day 7
  aPTT time: 33.5 s
Lactating goats [2]; Low dose udder infusion (25,000 units/liter), Animal 1, days 1-8, day 8
  aPTT time: 33.1 s
Lactating goats [2]; Medium dose udder infusion (100,000 units per liter), Animal 2, days 1-8, day 1
  Milk volume: 2 L
Lactating goats [2]; Medium dose udder infusion (100,000 units per liter), Animal 2, days 1-8, day 2
  Milk volume: 1.35 L
Lactating goats [2]; Medium dose udder infusion (100,000 units per liter), Animal 2, days 1-8, day 3
  Milk volume: 1.5 L
Lactating goats [2]; Medium dose udder infusion (100,000 units per liter), Animal 2, days 1-8, day 4
  Milk volume: 1.6 L
Lactating goats [2]; Medium dose udder infusion (100,000 units per liter), Animal 2, days 1-8, day 5
  Milk volume: 1.3 L
Lactating goats [2]; Medium dose udder infusion (100,000 units per liter), Animal 2, days 1-8, day 6
  Milk volume: 1.2 L
Lactating goats [2]; Medium dose udder infusion (100,000 units per liter), Animal 2, days 1-8, day 7
  Milk volume: 1.25 L
Lactating goats [2]; Medium dose udder infusion (100,000 units per liter), Animal 2, days 1-8, day 8
  Milk volume: 1.75 L
Lactating goats [2]; [3]
  Milk volume: 3.25 L
  aPTT time: 24.7 s
Lactating goats [2]; [4]
  Milk volume: 2.75 L
  aPTT time: 32.7 s
Lactating goats [2]; [5]
  Milk volume: 2.5 L
  aPTT time: 44 s
Lactating goats [2]; [6]
  Milk volume: 1.9 L
  aPTT time: 30.2 s
Lactating goats [2]; [7]
  Milk volume: 2.2 L
  aPTT time: 42.4 s
Lactating goats [2]; [8]
  Milk volume: 2.0 L
  aPTT time: 42.1 s
Lactating goats [2]; [9]
  Milk volume: 2.25 L
  aPTT time: 22.9 s
Lactating goats [2]; Medium dose udder infusion (100,000 units per liter), Animal 4, days 1-8, day 8
  aPTT time: 29.8 s
Lactating goats [2]; all infusion levels
  Milk volume during heparin infusion into the udder: initial drop in milk volume
Lactating goats [2]; [10]
  Milk production: dramatic decrease in milk production
  Udder response: inflammatory response
Lactating goats [2]; high levels of infused heparin
  aPTT: dramatically increased
Lactating goats [2]; low and medium doses of systemic and infused heparin (overall conclusion)
  Goat health and milk production: minimal effects
Lactating goats [2]; single daily udder infusions of low or medium dose for a week
  aPTT: ≤ 55 s
Lactating goats [2]; udder infusion of the highest levels
  Systemic effects: high body temperature and increased respiratory sounds
Lactating goats [2]; [11]
  Body temperature: little effect
  Signs of bleeding: did not produce any signs of bleeding
Lactating goats [2]; washout after udder infusion
  aPTT during washout period after heparin udder infusion: 20 to 40 s
